The results in this text go back to patent US8426394B2, “Progesterone antagonists such as CDB-4124 in the treatment of endometriosis, uterine fibroids, dysmenorrhea, breast cancer, etc” (Repros Therapeutics Inc., priority 2008, dated 2013).

For test [1], the target named is T1, glucocorticoid receptor (rbGR) (Oryctolagus cuniculus, UniProt P59667).
T1 construct: cytosol containing PR or GR were prepared in TEGMD buffer; from tissue; host or cells: thymus of estradiol-primed immature rabbits (cytosol)
T1 sequence (P59667 1-772): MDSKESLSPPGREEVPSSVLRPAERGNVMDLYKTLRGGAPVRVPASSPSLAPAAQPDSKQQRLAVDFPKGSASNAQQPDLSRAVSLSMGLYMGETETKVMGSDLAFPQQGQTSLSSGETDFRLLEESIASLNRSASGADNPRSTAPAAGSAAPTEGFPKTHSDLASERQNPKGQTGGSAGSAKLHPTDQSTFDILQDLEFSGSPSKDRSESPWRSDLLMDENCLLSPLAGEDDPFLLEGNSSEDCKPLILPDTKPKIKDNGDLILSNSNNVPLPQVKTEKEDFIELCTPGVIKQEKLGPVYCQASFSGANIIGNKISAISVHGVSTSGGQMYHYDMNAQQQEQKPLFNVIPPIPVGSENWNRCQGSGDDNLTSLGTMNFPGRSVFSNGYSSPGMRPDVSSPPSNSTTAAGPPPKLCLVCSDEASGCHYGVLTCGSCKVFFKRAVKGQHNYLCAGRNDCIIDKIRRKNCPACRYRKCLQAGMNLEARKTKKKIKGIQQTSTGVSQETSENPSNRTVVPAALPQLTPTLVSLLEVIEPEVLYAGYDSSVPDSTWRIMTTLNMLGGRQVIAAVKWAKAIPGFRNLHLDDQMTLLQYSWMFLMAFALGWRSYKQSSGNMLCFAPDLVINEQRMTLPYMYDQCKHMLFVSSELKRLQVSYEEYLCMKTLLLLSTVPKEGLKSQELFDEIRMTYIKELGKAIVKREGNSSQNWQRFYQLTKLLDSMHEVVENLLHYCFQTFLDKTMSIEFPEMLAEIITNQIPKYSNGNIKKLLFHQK
In words: Glucocorticoid receptor binding / anti-glucocorticoid receptor activity. On the set-up: species or system rabbit. How it is done: Certain antiprogestins were tested in receptor-binding assays for their ability to bind rabbit progesterone receptor (rbPR) and glucocorticoid receptor (rbGR). […] For PR binding, the cytosol was incubated with 6 nM 1,2-[^3H]progesterone (50.0 Ci/mmole) and competitors were added at concentrations from 2 to 100 nM. For binding to GR, the cytosol was incubated with 6 nM 6,7-[^3H]-dexamethasone (40 Ci/mmol) and test compounds were added at concentrations from 20 to 100 nM. After overnight incubation at 4 C, bound and unbound [^3H] steroids were separated by addition of dextran-coated charcoal and centrifugation at 2100×g for 15 min at 4 C. Supernatants containing the [3H]-steroid receptor complexes were decanted into vials containing 4 ml Optifluor (Packard Instrument Co.), vortexed, equilibrated in a liquid scintillation counter for 30 minutes and then counted for 2 minutes. […] The standards for the PR and GR assays were unlabeled progesterone and dexamethasone, respectively.

Test [2] concerns progesterone-induced endometrial proliferation in the rabbit uterus. In words: anti-McGinty and anti-Clauberg assays (biological activity in the rabbit uterus). Type of test: in vivo. As to conditions: in comparison to RU 486 and CDB-2914. An excerpt:
Also given in Table 1 are the relative biological activities of the same compounds in the rabbit uterus by the anti-McGinty and anti-Clauberg assays. Compound CDB-2914 (listed at the end of the Table) was used as the control or reference compound (rabbit Biological Activity=1.00) for these experiments because results of experiments using CDB-2914 have been published before (Hild-Petito et al., 1996; Passaro et al., 1997; Reel et al., 1998; Lamer et al., 2000). For the anti-McGinty test, immature female rabbits received a subcutaneous injection of 5 μg estradiol in 10% ethanol/sesame oil daily for 6 consecutive days. On day 7, animals underwent sterile abdominal surgery to ligate a 3-4 cm segment of both uterine horns. The test compound in appropriate solvent was injected intraluminally into the ligated segment of one uterine horn and vehicle alone into the other. […] Five micron sections stained with hematoxylin and cosin were evaluated microscopically for the degree of endometrial glandular proliferation. The percent inhibition of endometrial proliferation for each rabbit was calculated and the mean of the group of five animals recorded. […] Five micron sections stained with hematoxylin and eosin were evaluated microscopically for the degree of endometrial glandular proliferation. […]

Turning to `COCC(=O)[C@@]1(OC(C)=O)CC[C@H]2[C@@H]3CCC4=CC(=O)CCC4=C3[C@@H](c3ccc(N(C)C)cc3)C[C@@]21C` [CDB-4124, 21-methoxy-17α-acetoxy-11β-(4 N,N-dimethylaminophenyl)-19-norpregna-4,9-diene-3,20-dione], the “anti-glucocorticoid receptor activity / glucocorticoid receptor binding” value in test [1] is listed as “minimal”. Also, the “antiprogestin activity in the rabbit uterus” value in test [2] is listed as “strong”.
